Assay results reported in patent publication US20260041744A1, “Methods for Treating Pompe Disease” (Amicus Therapeutics, Inc., priority 2022, published 2026).
“Also recorded” adds a separate entry of the source.

Columns and labels:
[1] = system: adults with Pompe disease; assay: Study ATB200-02: GSGC, 10MWT, TUG; assay type: in vivo, human
Source text: The study design includes 4 stages and 4 cohorts, with Stages 1 and 2 only for Cohort 1 and Stages 3 and 4 for all 4 cohorts (FIG. 79).
The 4 cohorts in the study are as follows: • Cohort 1: ERT-experienced (2 to 6 years) ambulatory subjects (11 subjects) • Cohort 2: ERT-experienced (≥2 years) non-ambulatory subjects (6 subjects) • Cohort 3: ERT-naïve ambulatory subjects (6 subjects)· • Cohort 4: ERT-experienced (≥7 years) ambulatory subjects (6 subjects)

[2] = system: adults with Pompe disease; assay: Study ATB200-02: plasma/serum creatine kinase (CK); conditions: for mean reduction from baseline in plasma CK: b512 prints a minus sign
Procedure: The change from baseline (CFBL) in 6MWD, % predicted sitting FVC, manual muscle test (MMT) and biomarkers—urine glucose tetrasaccharide (Hex4) and serum creatine kinase (CK)—were assessed at regular intervals.

[3] = Study ATB200-02: safety (TEAEs); conditions: in vivo
Source text: Mean (SD) duration of treatment was 37.2 (14.48), 19.9 (4.13) and 36.9 (12.14) months in cohorts 1 (prior ERT 2-6 years), 4 (prior ERT ≥7 years) and 3 (ERT naive), respectively.
Mean (SD) duration of treatment was 46.3 (22.86) months.

[4] = system: adults with Pompe disease; assay: Study ATB200-02: MIP, MEP and other pulmonary measures; assay type: in vivo, human
Source text: Mean CFBL in % predicted sitting FVC was generally stable (CFBL±3% points) for up to 48 months of follow-up in the ERT-experienced cohorts (FIG. 47A, Table 26B), with improvements (CFBL >3% points) at Months 48 in 66.7% of ERT-experienced and 75% of ERT-naïve patients.
In the ERT-naïve cohort, mean CFBL in % predicted sitting FVC improved at 3 months and then remained generally stable up to 48 months of follow up (FIG. 47B, Table 26B), except for one patient who experienced a large drop in % predicted sitting FVC at Month 21, which returned to previous levels at the following visit at Month 24. Mean % predicted sitting FVC improvements were more marked in the ERT-naïve cohort compared with the ERT-experienced cohort over 48 months of follow up (FIG. 47B, Table 26B). […] Percent predicted sitting FVC data were supported by similar outcomes in other pulmonary measures including % predicted maximum inspiratory pressure (MIP) and MEP.

[5] = system: adult subjects with late-onset Pompe disease (LOPD); assay: Study ATB200-03 (PROPEL): PROMIS-Fatigue; assay type: in vivo, human; conditions: for CHG to Week 52 in PROMIS-Fatigue total score, LS Mean: MMRM, actual time point of assessments, decrease indicates improvement; for PROMIS-Fatigue Short Form 8a total score CHG, LS means (SE): Week 52, ANCOVA
Procedure: The test for the primary endpoint was conducted first at the 1-sided 0.025 significance level, and if significant, the ordered key secondary endpoints were similarly tested at the same significance level. The statistical significance of the key secondary endpoints was interpreted following a hierarchical testing order, each at the 1-sided alpha level of 0.025. […] Primary analyses of efficacy were performed using the mixed-effect model for repeated measures (MMRM) for 6MWD in Intent-to-treat Observed Population (ITT) that includes all available, observed data without any missing data imputation (ITT-OBS) and analysis of covariance (ANCOVA) for all other endpoints in the Intent-to-Treat-Last Observation Carried Forward (ITT-LOCF) Population. A nonparametric randomization based ANCOVA was specified as the first sensitivity analysis for 6MWD and FVC. […] For the purposes of data presentation in this document, 2-sided p-values are reported hereafter, except as otherwise noted.

[6] = Ambulatory ERT-experienced, 12 months
[7] = Ambulatory ERT-experienced, 24 months
[8] = Ambulatory ERT-experienced, 36 months
[9] = Ambulatory ERT-experienced, 48 months
[10] = Ambulatory ERT-naïve, 12 months
[11] = Ambulatory ERT-naïve, 24 months
[12] = Ambulatory ERT-naïve, 36 months
[13] = Ambulatory ERT-naïve, 48 months
[14] = Non-ambulatory ERT-experienced, 12 months
[15] = Non-ambulatory ERT-experienced, 24 months
[16] = Non-ambulatory ERT-experienced, 36 months
[17] = Non-ambulatory ERT-experienced, 48 months
[18] = Week 52-LOCF, ERT-experienced Population
[19] = Week 52-LOCF, ERT-naïve Population excluding Subject 4005-2511
[20] = Week 52-LOCF, ITT excluding Subject 4005-2511

## ATB200/miglustat: two-component therapy: cipaglucosidase alfa (ATB200) administered in conjunction with miglustat (AT2221), a stabilizer of cipaglucosidase alfa
[1]; [6]
  10-Meter Walk Test, CFBL mean: −0.1 seconds
  Gait, Stairs, Gowers, and Chair, CFBL mean: −1.3
  Timed Up and Go, CFBL mean: -1.5 s
[1]; [7]
  10-Meter Walk Test, CFBL mean: 1.0 seconds
  Gait, Stairs, Gowers, and Chair, CFBL mean: −1.6
  Timed Up and Go, CFBL mean: 0.1 s
[1]; [8]
  10-Meter Walk Test, CFBL mean: 3.9 seconds
  Gait, Stairs, Gowers, and Chair, CFBL mean: −1.1
  Timed Up and Go, CFBL mean: -1.5 s
[1]; [9]
  10-Meter Walk Test, CFBL mean: 0.6 seconds
  Gait, Stairs, Gowers, and Chair, CFBL mean: −1.0
  Timed Up and Go, CFBL mean: -0.6 s
[1]; [10]
  10-Meter Walk Test, CFBL mean: −0.9 seconds
  Gait, Stairs, Gowers, and Chair, CFBL mean: −0.8
  Timed Up and Go, CFBL mean: -0.7 s
[1]; [11]
  10-Meter Walk Test, CFBL mean: −0.5 seconds
  Gait, Stairs, Gowers, and Chair, CFBL mean: −1.7
  Timed Up and Go, CFBL mean: -1.0 s
[1]; [12]
  10-Meter Walk Test, CFBL mean: 0.1 seconds
  Gait, Stairs, Gowers, and Chair, CFBL mean: −2.0
  Timed Up and Go, CFBL mean: 0.5 s
[1]; [13]
  10-Meter Walk Test, CFBL mean: 0.7 seconds
  Gait, Stairs, Gowers, and Chair, CFBL mean: −2.4
  Timed Up and Go, CFBL mean: 0.3 s
[1]; Cohort 1 + Cohort 3 + Cohort 4, 24-mo
  GSGC CFB, mean: −1.7
[1]; Cohort 1 + Cohort 3 + Cohort 4, 48-mo
  GSGC CFB, mean: −1.5
[1]; Cohort 1 + Cohort 4 (ERT-experienced), 24-mo, negative = improvement
  GSGC CFB, mean: −1.6
[1]; Cohort 1 + Cohort 4 (ERT-experienced), 48-mo
  GSGC CFB, mean: −1.0
[1]; Cohort 3 (ERT-naïve), 24-mo
  GSGC CFB, mean: −1.7
[1]; Cohort 3 (ERT-naïve), 48-mo
  GSGC CFB, mean: −2.4
[1]; ERT-experienced and ERT-naïve ambulatory subjects
  other measures of motor function incl. 10MWT, GSGC, TUG: improvements in other measures of motor function
[2]; [6]
  Serum creatine kinase, % CFBL mean: −20.5%
[2]; [7]
  Serum creatine kinase, % CFBL mean: −29.9%
[2]; [8]
  Serum creatine kinase, % CFBL mean: −30.0%
[2]; [9]
  Serum creatine kinase, % CFBL mean: −35.3%
[2]; [10]
  Serum creatine kinase, % CFBL mean: −50.6%
[2]; [11]
  Serum creatine kinase, % CFBL mean: −46.5%
[2]; [12]
  Serum creatine kinase, % CFBL mean: −50.7%
[2]; [13]
  Serum creatine kinase, % CFBL mean: −35.9%
[2]; Cohort 2 (non-ambulatory ERT-experienced), 12 months, listed as cipaglucosidase alfa plus miglustat
  mean reduction from baseline in plasma CK: 20.8%
[2]; Cohort 2 (non-ambulatory ERT-experienced), 12 months, listed as cipaglucosidase alfa/miglustat
  mean reduction from baseline in plasma CK: −20.8%
[2]; Cohort 2, 24 months, listed as cipaglucosidase alfa plus miglustat
  mean reduction from baseline in plasma CK: 25.3%
[2]; Cohort 2, 24 months, listed as cipaglucosidase alfa/miglustat
  mean reduction from baseline in plasma CK: −25.3%
[2]; Cohort 2, 36 months, listed as cipaglucosidase alfa plus miglustat
  mean reduction from baseline in plasma CK: 27.1%
[2]; Cohort 2, 36 months, listed as cipaglucosidase alfa/miglustat
  mean reduction from baseline in plasma CK: −27%
[2]; Cohort 2, 48 months, listed as cipaglucosidase alfa plus miglustat
  mean reduction from baseline in plasma CK: 23.7%
[2]; Cohort 2, 48 months, listed as cipaglucosidase alfa/miglustat
  mean reduction from baseline in plasma CK: −23.7%
[2]; ERT-experienced (two of six)
  patients with abnormal baseline CK who had normal CK levels at Month 48: 33.3%
[2]; ERT-experienced, 12 months
  patients whose plasma CK decreased numerically from baseline (n/N): 13/15
[2]; ERT-experienced, 24 months
  patients whose plasma CK decreased numerically from baseline (n/N): 14/15
[2]; ERT-experienced, 36 months
  patients whose plasma CK decreased numerically from baseline (n/N): 9/11
[2]; ERT-experienced, 48 months
  patients whose plasma CK decreased numerically from baseline (n/N): 8/9
[2]; ERT-naïve (two of five abnormal at baseline)
  CK status at Month 48 of patients with abnormal baseline CK: remained abnormal at Month 48
[2]; ERT-naïve, 12 months
  patients whose plasma CK decreased numerically from baseline (n/N): 6/6
[2]; ERT-naïve, 24 months
  patients whose plasma CK decreased numerically from baseline (n/N): 6/6
[2]; ERT-naïve, 36 months
  patients whose plasma CK decreased numerically from baseline (n/N): 5/5
[2]; ERT-naïve, 48 months
  patients whose plasma CK decreased numerically from baseline (n/N): 4/5
[2]; [14]
  Serum creatine kinase, % CFBL mean: −20.8%
[2]; [15]
  Serum creatine kinase, % CFBL mean: −25.3%
[2]; [16]
  Serum creatine kinase, % CFBL mean: −27.1%
[2]; [17]
  Serum creatine kinase, % CFBL mean: −23.7%
[3]
  TEAE profile / tolerability: most TEAEs were mild or moderate in severity and did not lead to study withdrawal
[4]; 12, 24, 36, and 48 months, listed as cipaglucosidase alfa/miglustat
  MEP / MIP outcome: maximum expiratory pressure (MEP) results that also improved numerically from baseline; also recorded: MIP improved numerically in ERT-naïve patients
[4]; [6]
  Percent predicted Sniff Nasal Inspiratory Pressure, CFBL mean: 2.1%
  Percent predicted maximum expiratory pressure, CFBL mean: 9.4%
  Percent predicted maximum inspiratory pressure, CFBL mean: 3.7%
[4]; [7]
  Percent predicted Sniff Nasal Inspiratory Pressure, CFBL mean: 5.3%
  Percent predicted maximum expiratory pressure, CFBL mean: 16.8%
  Percent predicted maximum inspiratory pressure, CFBL mean: 4.5%
[4]; [8]
  Percent predicted Sniff Nasal Inspiratory Pressure, CFBL mean: −2.3%
  Percent predicted maximum expiratory pressure, CFBL mean: 13.7%
  Percent predicted maximum inspiratory pressure, CFBL mean: −0.5%
[4]; [9]
  Percent predicted Sniff Nasal Inspiratory Pressure, CFBL mean: 7.3%
  Percent predicted maximum expiratory pressure, CFBL mean: 17.9%
  Percent predicted maximum inspiratory pressure, CFBL mean: −3.8%
[4]; [10]
  Percent predicted Sniff Nasal Inspiratory Pressure, CFBL mean: 9.4%
  Percent predicted maximum expiratory pressure, CFBL mean: 11.6%
  Percent predicted maximum inspiratory pressure, CFBL mean: 8.0%
[4]; [11]
  Percent predicted Sniff Nasal Inspiratory Pressure, CFBL mean: 8.1%
  Percent predicted maximum expiratory pressure, CFBL mean: 17.9%
  Percent predicted maximum inspiratory pressure, CFBL mean: 18.7%
[4]; [12]
  Percent predicted Sniff Nasal Inspiratory Pressure, CFBL mean: 4.3%
  Percent predicted maximum expiratory pressure, CFBL mean: 14.2%
  Percent predicted maximum inspiratory pressure, CFBL mean: 12.5%
[4]; [13]
  Percent predicted Sniff Nasal Inspiratory Pressure, CFBL mean: 4.6%
  Percent predicted maximum expiratory pressure, CFBL mean: 24.8%
  Percent predicted maximum inspiratory pressure, CFBL mean: 16.1%
[4]; [14]
  Percent predicted Sniff Nasal Inspiratory Pressure, CFBL mean: 4.5%
  Percent predicted maximum expiratory pressure, CFBL mean: 10.6%
  Percent predicted maximum inspiratory pressure, CFBL mean: 1.1%
[4]; [15]
  Percent predicted Sniff Nasal Inspiratory Pressure, CFBL mean: 7.8%
  Percent predicted maximum expiratory pressure, CFBL mean: 21.1%
  Percent predicted maximum inspiratory pressure, CFBL mean: 3.3%
[4]; [16]
  Percent predicted Sniff Nasal Inspiratory Pressure, CFBL mean: −0.4%
  Percent predicted maximum expiratory pressure, CFBL mean: 11.5%
  Percent predicted maximum inspiratory pressure, CFBL mean: −0.4%
[4]; [17]
  Percent predicted Sniff Nasal Inspiratory Pressure, CFBL mean: −4.1%
  Percent predicted maximum expiratory pressure, CFBL mean: 21.0%
  Percent predicted maximum inspiratory pressure, CFBL mean: 3.9%

## alglucosidase alfa [reference compound]
[5]; Baseline, ITT, ERT-naïve Population excluding Subject 4005-2511
  PROMIS-Fatigue Short Form 8a Total Score Absolute Value, Median: 24.00
[5]; Baseline, ITT, ERT-naïve Population excluding Subject 4005-2511, score 8 to 40, lower = less fatigue
  PROMIS-Fatigue Short Form 8a Total Score Absolute Value, Mean: 24.13
[5]; ERT-experienced Population
  mean (SD) change in PROMIS-Fatigue total score from baseline to Week 52: −0.5 (5.72)
[5]; ERT-naïve excluding Subject 4005-2511
  mean (SD) change in PROMIS-Fatigue total score from baseline to Week 52: −5.4 (6.61)
[5]; ITT-LOCF, ERT-naïve Population excluding Subject 4005-2511
  Change in PROMIS-Fatigue total score baseline to Week 52, LS means (SE) from ANCOVA: −6.28 (2.757)
[5]; ITT-OBS excluding Subject 4005-2511 (overall)
  CHG to Week 52 in PROMIS-Fatigue total score, LS Mean: −1.7
[5]; ITT-OBS excluding Subject 4005-2511, ERT-naïve Subjects
  CHG to Week 52 in PROMIS-Fatigue total score, LS Mean: −4.9
[5]; ITT-OBS, ERT-experienced Subjects
  CHG to Week 52 in PROMIS-Fatigue total score, LS Mean: −0.7
[5]; [18]
  PROMIS-Fatigue Short Form 8a Total Score Absolute Value, Mean: 19.87
  PROMIS-Fatigue Short Form 8a Total Score Absolute Value, Median: 18.00
  PROMIS-Fatigue Short Form 8a Total Score CHG, Mean: −0.50
  PROMIS-Fatigue Short Form 8a total score CHG, Median: 0.50
[5]; [19]
  PROMIS-Fatigue Short Form 8a Total Score Absolute Value, Mean: 16.43
  PROMIS-Fatigue Short Form 8a Total Score Absolute Value, Median: 15.00
  PROMIS-Fatigue Short Form 8a Total Score CHG (change from baseline), Mean: −7.70
  PROMIS-Fatigue Short Form 8a Total Score CHG (change from baseline), Median: −6.90
[5]; [20]
  PROMIS-Fatigue Short Form 8a Total Score Absolute Value, Median: 18.00
  PROMIS-Fatigue Short Form 8a total score Absolute Value, Mean (SD): 19.41 (6.735)
  PROMIS-Fatigue Short Form 8a total score CHG, Mean (SD): −1.67 (6.623)
  PROMIS-Fatigue Short Form 8a total score CHG, Median: −1.00
[5]; ITT-LOCF excluding Subject 4005-2511
  PROMIS-Fatigue Short Form 8a total score CHG, LS means (SE): −1.94 (0.901)
[5]; ITT-LOCF, ERT-experienced Population
  PROMIS-Fatigue Short Form 8a total score CHG, LS means (SE): −0.79 (0.953)
[5]; overall population
  mean (SD) change in PROMIS-Fatigue total score from baseline to Week 52: -1.9 (0.90)
